{"source": "paper PMC12606464", "about": "“Investigating NFE2L1 activators for targeted protein aggregate clearance: a follow-up study” (RSC Medicinal Chemistry, 2025)", "system": "NFE2L1 pathway (DDI2-dependent) in HCT116 cells", "assay": "3×PSMA4-ARE-LUC reporter in HCT116 WT and DDI2 knockout cells", "type": "cell-based, human", "protocol": "Fig. 1 (A) Targeted library screening of RUN compounds using the 3×PSMA4-ARE-LUC dual reporter assay in HEK293 cells. Cells were exposed to RUN compounds (5 μM) for 16 hours, and luciferase activity was measured. Data are presented as the mean ± SD from three independent experiments (n = 3). Results are shown as a fold change in luminescence relative to DMSO-treated cells. Selected hit compounds are highlighted in distinct colours. (B) RUN-89 specifically activates the NFE2L1 pathway. The DDI2 knockout (KO) and parental (WT) HCT116 cells were transfected with the 3×PSMA4-ARE-LUC reporter and treated with 0.5 μM bortezomib (BTZ) and 5 μM RUN-89 for 16 hours. Data are presented as the Geomean ± GeoSD of three independent experiments (n = 3). Statistical analysis was performed on log2-transformed values using two-way repeated-measures ANOVA followed by Šídak's multiple comparison test. (C) RUN-89 selectively triggers downstream signaling events associated with NFE2L1 gene expression. HEK293 cells were transfected with lipid nanoparticles (LNPs) carrying siRNAs targeting NFE2L1 or NFE2L2. LNPs formulated with non-targeting siRNA served as a negative control. Following 24 hours of incubation, cells were treated with 7.5 μM RUN-89 or DMSO (vehicle) for an additional 16 hours. Expression of the proteasomal subunit gene PSMC4 was then quantified by RT-qPCR. Data are shown as the Geomean ± GeoSD from three independent biological replicates (n = 3). Log2-transformed data were analyzed using two-way repeated-measures ANOVA with the Geisser–Greenhouse correction, followed by Tukey's multiple comparison test with individual variances computed for each comparison. Additional results for NFE2L1, NFE2L2, PSMB7, and PSMD12 are presented in SI Fig. S10.\nTo clarify whether the representative compound RUN-89 activates the NFE2L1-specific luciferase reporter independently of the KEAP1–NFE2L2 pathway, we used the 3×PSMA4-ARE-LUC dual reporter in previously published DDI2 knockout HCT116 cells (from ATCC CCL-247 (RRID:CVCL_0291)), in which the protease essential for NFE2L1 activation is disrupted. […] These findings indicate that RUN-89 activates the reporter construct through NFE2L1.\n2 Biology Experimental Procedures […]\nCell lines were sourced from the ATCC (USA) and/or ECACC (UK), namely HCT116 (human colorectal carcinoma), ATCC CCL-247 (RRID:CVCL_0291), HEK-293 (human embryonic kidney), ATCC CRL-1573 (RRID:CVCL_0045), SH-SY5Y (human neuroblastoma), ATCC CRL-2266 (RRID:CVCL_0019). The characteristics of DDI2 knockout cells derived from HCT116 cells have been described previously (Sedlacek et al., 2025). All cell lines were tested for mycoplasma contamination. Most of the cell lines were cultured in Dulbecco's Modified Eagle Medium (DMEM) enriched with 10% fetal bovine serum (FBS) and 2 mM L-glutamine, under standard conditions of 37 °C with 5% CO₂. DNA transfection was performed with Lipofectamine 2000, following the manufacturer's instructions. […]\nalamarBlue assay according to the standard protocol.(1)\n2.3 Dual luciferase phenotypic assays\nHEK293-derived cells stably expressing the 3×PSMA4-ARE-Luc reporter were maintained at low to mid passage numbers before use. For each experiment, cells were transiently transfected with the pRL-TK Renilla luciferase plasmid using Lipofectamine 2000.\nApproximately 5–6 hours post-transfection, cells were seeded into plate format according to the experiment (384-well plate mostly). On the following day, cells were treated with the indicated test compounds or DMSO vehicle control for 16 hours (unless otherwise specified).\nAfter treatment, cells were lysed and luciferase activities were quantified using the Dual-Luciferase® Reporter Assay System according to the manufacturer’s instructions and established protocols.(2, 3) For assays using the CMV-XBP-Gluc construct encoding Gaussia […]", "data": [{"molecule": "COc1ccc(/C=C2\\CC(NC(=O)C3CCCC3)C/C(=C\\c3ccc(OC)c(OC)c3)C2=O)cc1OC", "note": "(stereo not shown) [RUN-89]", "values": [{"measurement": "Mean log2-transformed reporter fold change, HCT116 KO 04", "setting": "DDI2-/- clone KO 04, 0.5 μM BTZ or 5 μM RUN-89, 16 h, DMSO = 0", "value": 0.09237}, {"measurement": "Mean log2-transformed reporter fold change, HCT116 KO 11", "setting": "DDI2-/- clone KO 11, 0.5 μM BTZ or 5 μM RUN-89, 16 h, DMSO = 0", "value": 0.4773}, {"measurement": "Reporter activity in DDI2-deficient cells", "setting": "DDI2 knockout HCT116, in contrast to wild-type cells", "value": "neither the proteasome inhibitor bortezomib nor RUN-89 induced reporter activity"}, {"measurement": "Mean log2-transformed reporter fold change, HCT116 WT", "setting": "WT (DDI2+/+), 0.5 μM BTZ or 5 μM RUN-89, 16 h, DMSO = 0", "value": 1.7}]}]}
